Where a SMILES comes first, the peptide text is derived from it.
Key:
S. aureus = experiment: Antimicrobial activity by flow cytometry (SYBR Green / propidium iodide); type: cell-based, Staphylococcus aureus subsp. aureus CECT 4013
Description: The strain used was CECT 4013 of S. aureus subsp. aureus, publicly accessible deposited in the Spanish Type Culture Collection (CECT).
Starting from cells of S. aureus cultured overnight in a liquid medium LB (peptone 1%, yeast extract 0.5% and NaCl 1%) at 37° C. with stirring, aliquots were obtained in a new liquid medium and allowed to grow until reaching an optical density at 600 nm (OD600) of 0.5, optimum for detection in the flow cytometer. Aliquots were prepared with a concentration of 5×10^6 cfu/100 μL of S. aureus to which were added 10, 15, 20 and 25 μg/mL of PaSK, 25 μg/mL of TcDef3-pep and H2O (negative control), solvent used to dilute the peptides. The mixtures were incubated at 37° C. for 8 h and marked with the fluorochromes SYBR Green (Invitrogen) (25 μL of a SYBR Green 25× solution in H2O) that stains all the cells and propidium iodide (Sigma) (10 μL of propidium iodide 1 mg/mL) that stains dead cells. Finally, the cell death caused by the peptides was analysed by flow cytometry with the equipment BD Facs Verse (Becton Dickinson), from the cell culture and flow cytometry section of the Central Services for Research Support of the University of Valencia. The experiments were performed in duplicate.
The flow cytometer forces cells to pass one by one through a needle, creating a thin line of liquid and detecting how the laser beam (argon emission laser at 488 nm, in the equipment used) interacts with the cells, depending on how the incident light is deviated and the fluorescence emitted by the excited fluorochromes. The results are presented as graphs obtained with the analysis program BD Facs suite v1.0.5.3841 (Becton Dickinson). […] Then, a second graph is obtained with the parameters SSC and FITC (fluorescence parameter indicating the cells containing SYBR Green), to differentiate the cells from the other particles that may be present in the sample. Lastly, a third graph is obtained with the fluorescence parameters FITC and PerCPCy5.5 (indicating the cells stained with propidium iodide) to differentiate the cells that have been stained only by SYBR Green from those stained with propidium iodide, which will be those that have died.
The antimicrobial activity of the peptide PaSK was determined by flow cytometry. […] Therefore, the use of these two fluorochromes provides a method for determining viable cells, quantifying the loss of cell viability from the increase in propidium iodide inside the dead cells.
After incubating the cells of strain CECT 4013 of S. aureus with 25 μg/mL of the peptides TcDef3-pep and PaSK, the percentage of dead cells was determined. […] FIGS. 1A-1D show the graphs corresponding to the fluorescence obtained in the windows of the flow cytometer.

MDA-MB-231 tumour cells = experiment: Scanning and transmission electron microscopy of tumour cells; type: cell-based, human; settings: 100 μg/mL, 72 h
Description: The MDA-MB-231 cells, control or treated with 100 μg/mL of PaSK, were prepared as indicated in the section “Preparation of the samples”. The cells were fixed with Karnosky (2.5% paraformaldehyde and 0.5% glutaraldehyde) for 2 h at 4° C. After washing (centrifuging and eliminating the supernatant) they were fixed with 2% osmium tetraoxide for another 2 h, washed again and filtered with a 0.2 μm filter. The cells were then dehydrated in graded ethanol series (30°, 50°, 70°, 90°, 100°) for 10 min in each gradation. To carry out the critical point drying, the ethanol was replaced with liquid CO2, the temperature was increased to accelerate evaporation and the pressure was lowered slowly to conserve the exact shape of the cells. Finally, shading with gold palladium was performed for 2 min observing the results in the equipment FEG-SEM HITACHI S4800 at 10 Kv. […]
Both scanning electron microscopy and transmission electron microscopy provide high resolution images, which were used to view the morphological and ultrastructural changes caused by the peptide PaSK in the membrane and inside of tumour cells. The MDA-MB-231 cells were treated with the peptide PaSK at a concentration of 100 μg/mL for 72 h, and were analysed using scanning electron microscopy (FIG. 14) and transmission electron microscopy (FIG. 15). […]

MDA-MB-231 cells = experiment: Cell proliferation analysis by flow cytometry with Oregon Green; type: cell-based, human; settings: 50 μM (200 μg/mL)
Description: A cell proliferation analysis was performed by flow cytometry for tumour cells marked with the fluorophore Oregon Green subsequently treated with a concentration of 50 μM (200 μg/mL) of the peptide PaSK or with H2O as control. This analysis allowed exploring the use of PaSK in a combined therapeutic approach. The combined use of therapeutic agents meant to inhibit tumour growth and maintenance and agents capable of stimulating the patient's immune response in the treatment of cancer is an alternative therapeutic approach to conventional approaches based only on cytotoxic agents for reducing the impact of the two main problems associated with the exclusive use of cytotoxic agents in cancer therapy: non-specific toxicity and the appearance of resistance.
The reagent Oregon Green is covalently bonded to free amine groups of cells, conferring on same a homogeneous fluorescence that is distributed among the daughter cells in each cell division. As the fluorescence intensity of the cells is approximately halved with each cell division, the final fluorescence intensity after treatment with the peptide and in non-treated control cells compared to the initial fluorescence intensity of the cells provides information on how many cell division cycles have occurred in each case.

## CC[C@H](C)[C@H](NC(=O)[C@H](CCCNC(=N)N)NC(=O)[C@H](CCCNC(=N)N)NC(=O)[C@H](CCCCN)NC(=O)[C@H](CC(N)=O)NC(=O)[C@H](CS)NC(=O)[C@H](Cc1ccc(O)cc1)NC(=O)CNC(=O)CNC(=O)[C@H](CCCNC(=N)N)NC(=O)[C@H](CCCCN)NC(=O)[C@H](CCCNC(=N)N)NC(=O)[C@H](CCCCN)NC(=O)[C@H](CC(C)C)NC(=O)[C@H](CC(C)C)NC(=O)[C@H](CS)NC(=O)[C@H](Cc1c[nH]cn1)NC(=O)[C@H](C)NC(=O)[C@H](C)NC(=O)[C@H](CS)NC(=O)[C@H](C)NC(=O)[C@H](C)NC(=O)[C@H](Cc1c[nH]cn1)NC(=O)[C@H](CC(N)=O)NC(=O)[C@@H](NC(=O)[C@@H](N)CCCCN)C(C)C)C(=O)N[C@@H](CS)C(=O)N[C@H](C(=O)N[C@@H](CS)C(=O)N[C@@H](CCCNC(=N)N)C(=O)N[C@@H](CC(N)=O)C(=O)O)C(C)C [PaSK] (H-KVNHAACAAHCLLKRKRGGYCNKRRICVCRN-OH; N-terminus and C-terminus assumed)
S. aureus; 10 μg/mL, same conditions
  percentage of cell death (cytotoxicity): ~100%
S. aureus; 25 μg/mL, 8 h at 37° C., 2 replicates
  percentage of dead cells (cytotoxicity): ~100%
MDA-MB-231 tumour cells
  morphological and ultrastructural changes: significant morphological changes
MDA-MB-231 cells
  cell proliferation (Oregon Green fluorescence intensity): inhibits proliferation

Reference: patent US11365227B2, “Peptide and pharmaceutical compositions of same for use as an antimicrobial and in cancer treatment” (UNIVERSITAT DE VALÈNCIA, priority 2017, dated 2022)
